# Measured values as given in patent US20070066601A1, “Combination of a serotonin reuptake inhibitor and a histamine 3 receptor antagonist, inverse agonist or partial agonist” (H. LUNDBECK A/S, priority 2003, published 2007).
# Key:
# cortex synaptosomes = conditions: cited from earlier work
# [1] = tested on: serotonin levels in ventral hippocampus; assay: Microdialysis of brain serotonin levels in rats; type: in vivo, rat; conditions: for effect on 5-HT levels when compared to citalopram administration alone: P<0.0001
# Procedure: Male albino rats of a Wistar-derived strain (285-320 g; Harlan, Zeist, The Netherlands) were used for the experiments. Upon surgery, rats were housed individually in plastic cages (35×35×40 cm), and had free access to food and water. Animals were kept on a 12 h light schedule (light on 7:00 a.m.). The experiments are concordant with the declarations of Helsinki and were approved by the animal care committee of the faculty of mathematics and natural science of the University of Groningen.
# Microdialysis of brain serotonin levels was performed using home made I-shaped probes, made of polyacrylonitrile/sodium methyl sulfonate copolymer dialysis fiber (i.d. 220 μm, o.d. 300 μm, AN 69, Hospal, Italy). Preceding surgery rats were anaesthetised using isoflurane (O2/N2O; 300/300 ml/min). Lidocaine-HCl, 10 % (m/v) was used for local anaesthesia. Rats were placed in a stereotaxic frame (Kopf, USA), and probes were inserted into Ventral Hippcampus (V. Hippo, L +4.8 mm, […], V: −8.0 mm) and median prefrontal cortex (PFC, L −0.9 mm; AP: +3.5 mm relative to bregma; V: −6.0 mm (Paxinos and Watson, 1982). After insertion, probes were secured with dental cement.
# Rats were allowed to recover for at least 24 h. Probes were perfused with artificial cerebrospinal fluid containing 147 mM NaCl, 3.0 mM KCl, 1.2 mM CaCl2, and 1.2 mM MgCl2, at a flow-rate of 1.5 μl/min (Harvard apparatus, South Natick, Mass., USA). 15 minute microdialysis samples were collected in HPLC vials containing 7.5 μl 0.02 M acetic acid for serotonin analysis.
# Twenty-μl microdialysate samples were injected via an autoinjector (CMA/200 refrigerated microsampler, CMA, Sweden) onto a 100×2.0 mm C18 Hypersil 3 μm column (Bester, Amstelveen, the Netherlands) and separated with a mobile phase consisting of 5 g/L di-ammoniumsulfate, 500 mg/L EDTA, 50 mg/L heptane sulphonic acid, 4% methanol v/v, and 30 μI/L of triethylamine, pH 4.65 at a flow of 0.4 ml/min (Shimadzu LC-10 AD). 5-HT was detected amperometrically at a glassy carbon electrode at 500 mV vs Ag/AgCl (Antec Leyden, Leiden, The Netherlands). The detection limit was 0.5 fmol 5-HT per 20 μl sample (signal to noise ratio 3).
# Four consecutive microdialysis samples with less then 20% variation were taken as control and set at 100%. Data are presented as percentages of control level (mean±S.E.M.) in time. Statistical analysis was performed using Sigmastat for Windows (SPSS, Jandel Corporation). Treatments were compared versus controls using two way analysis of variance (ANOVA) for repeated measurements, followed by Student Newman Keuls test. Level of significance level was set at p<0.05.
structure (smiles),measurement,setting,value
C[C@@H](N)Cc1cnc[nH]1 [R-(alphe)-methylhistamine],effect on electrical evoked release of tritiated serotonin,cortex synaptosomes,inhibited
"O=C(c1ccc(OCCCc2cnc[nH]2)cc1)C1CC1 [ciproxifan, Ciproxifan]",effects on serotonin levels in ventral hippocampus,"[1]; ciproxifan alone, 15 mg/kg s.c., P=0.54 n.s.",did not induce any effects
same,effect on 5-HT levels when compared to citalopram administration alone,[1]; co-administration of citalopram 10 μmol/kg with ciproxifan 15 mg/kg s.c.,augmented effect
"S=C(NC1CCCCC1)N1CCC(c2cnc[nH]2)CC1 [thioperamide, Thioperamide]",effect on 5-HT levels when compared to citalopram administration alone,[1]; co-administration of citalopram 10 μmol/kg with thioperamide 5 mg/kg s.c.,augmented effect
same,effects on serotonin levels in ventral hippocampus,"[1]; thioperamide alone, 5 mg/kg s.c., P=0.44 n.s.",did not induce any effects
same,effect on the inhibition of evoked serotonin release by R-(alphe)-methylhistamine,cortex synaptosomes,reversed
